# Test results from patent EP0747380B1, “Compounds and compositions with nitrogen-containing non-basic side chains” (ELI LILLY AND COMPANY, priority 1995, dated 1996).
# Values joined by “and” are separate entries in the source; they are usually repeats but may differ in a detail not shown here. Identical values can stand only once.
# Legend:
# serum cholesterol = experiment: Serum cholesterol analysis, OVX rat, four day dosing regimen; assay type: in vivo, female Sprague Dawley rats; conditions: oral, daily for 4 days, OVX rats, * = significantly different than OVX control; for inhibition in vivo at 0.1 mg/kg / inhibition in vivo at 1 mg/kg / inhibition in vivo at 10 mg/kg: Rattus norvegicus, 96 h, read-out: Serum Cholesterol (% dec. OVX)
# Experimental: (§1) Animals were dosed daily for 4 days. […] A blood sample was collected by cardiac puncture.
# Blood samples were allowed to clot at room temperature for 2 hours, and serum was obtained following centrifugation for 10 minutes at 3000 rpm. Serum cholesterol was determined using a Boehringer Mannheim Diagnostics high performance cholesterol assay. Briefly the cholesterol was oxidized to cholest-4-en-3-one and hydrogen peroxide. The hydrogen peroxide was then reacted with phenol and 4-aminophenazone in the presence of peroxidase to produce a p-quinone imine dye, which was read spectrophotemetrically at 500 nm. Cholesterol concentration was then calculated against a standard curve. The entire assay was automated using a Biomek Automated Workstation.
# [1] = tested on: MCF-7 breast adenocarcinoma cells; experiment: MCF-7 proliferation assay (tritiated thymidine incorporation); assay type: cell-based; conditions: Homo sapiens, MCF7; MCF-7 cells, 48 hours with drug, tritiated thymidine pulse 4 hours; read-out: ED50 (the source's name)
# Experimental: MCF-7 breast adenocarcinoma cells (ATCC HTB 22) were maintained in MEM (minimal essential medium, phenol red-free, Sigma, St. Louis, MO) supplemented with 10% fetal bovine serum (FBS) (V/V), L-glutamine (2 mM), sodium pyruvate (1 mM), HEPES {(N-[2-hydroxyethyl]piperazine-N'-[2-ethanesulfonic acid]10 mM}, non-essential amino acids and bovine insulin (1 µg/ml) (maintenance medium). Ten days prior to assay, MCF-7 cells were switched to maintenance medium supplemented with 10% dextrancoated charcoal stripped fetal bovine serum (DCC-FBS) assay medium) in place of 10% FBS to deplete internal stores of steroids. MCF-7 cells were removed from maintenance flasks using cell dissociation medium (Ca++/Mg++ free HBSS (phenol red-free) supplemented with 10 mM HEPES and 2 mM EDTA). Cells were washed twice with assay medium and adjusted to 80,000 cells/ml. […] Serial dilutions of drugs or DMSO as a diluent control were prepared in assay medium and […] to triplicate microcultures followed by 50 ml assay medium for a final volume of […]. After an additional 48 hours at 37° C in a 5% CO2 humidified incubator, microcultures were pulsed with tritiated thymidine (1 uCi/well) for 4 hours. Cultures were terminated by freezing at -70° C for 24 hours followed by thawing and harvesting of microcultures. Samples were counted by liquid scintillation.
# uterus = experiment: Uterine wet weight, post-menopausal (OVX) rat model, four day dosing regimen; assay type: in vivo, female Sprague Dawley rats; conditions: oral, daily for 4 days, OVX rats, * = significantly different than OVX control
# Experimental: In the examples illustrating the methods, a post-menopausal model was used in which effects of different treatments upon various biological parameters were determined, including serum cholesterol concentration, uterine weight, eosinophil peroxidase activity, MCF-7 cell proliferation, and bone density.
# as §1
# [2] = tested on: eosinophil peroxidase activity; experiment: Uterine eosinophil peroxidase (EPO) assay, OVX rat, four day dosing regimen; conditions: oral, daily for 4 days, OVX rats, * = significantly different than OVX control
# Text: Seventy-five day old female Sprague Dawley rats (weight range of 200 to 225 g) were obtained from Charles River Laboratories (Portage, MI). The animals were either bilaterally ovariectomized (OVX) or exposed to a sham surgical procedure (Intact) at Charles River Laboratories, and then shipped after one week. Upon arrival, they were housed in metal hanging cages in groups of 3 or 4 per cage and had ad libitum access to food (calcium content approximately 0.5%) and water for one week. […] The photoperiod in the room was 12 hours light and 12 hours dark.
# After a one week acclimation period (therefore, two weeks post-OVX), daily dosing with test compound was initiated. 17α-Ethynyl estradiol (EE2) (Sigma Chemical Co., St. Louis, MO), an orally available form of estrogen, or the test compound were given orally, unless otherwise stated, as a suspension in 1% carboxymethyl cellulose or dissolved in 20% cyclodextrin. Animals were dosed daily for 4 days. Following the dosing regimen, animals were weighed and anesthetized with a ketamine:xylazine (2:1, v:v) mixture. A blood sample was collected by cardiac puncture. The animals were then sacrificed by asphyxiation with CO2, the uterus was removed through a midline incision, and a wet uterine weight was determined.
# Uteri were kept at 4° C until time of enzymatic analysis. The uteri were then homogenized in 50 volumes of 50 mM Tris buffer (pH - 8.0) containing 0.005% Triton X-100. Upon addition of 0.01% hydrogen peroxide and 10 mM o-phenylenediamine (final concentrations) in Tris buffer, increase in absorbance was monitored for one minute at 450 nm. […] The maximal velocity of a 15 second interval was determined over the initial, linear portion of the reaction curve.
Compound,inhibition in vivo at 0.1 mg/kg (serum cholesterol; Dose 0.1 mg/kg) [%],inhibition in vivo at 1 mg/kg (serum cholesterol; Dose 1 mg/kg) [%],inhibition in vivo at 10 mg/kg (serum cholesterol; Dose 10 mg/kg) [%],EC50 [1] [nM],Uterine Weight (% inc. OVX) (uterus; Dose 0.1 mg/kg) [%],Uterine Weight (% inc. OVX) (uterus; Dose 1 mg/kg) [%],Uterine Weight (% inc. OVX) (uterus; Dose 10 mg/kg),Uterine EPO (Vmax) ([2]; Dose 0.1 mg/kg),Uterine EPO (Vmax) ([2]; Dose 1 mg/kg),Uterine EPO (Vmax) ([2]; Dose 10 mg/kg),Serum Cholesterol (% dec. OVX) (serum cholesterol; Dose 0.1 mg/kg) [%],Serum Cholesterol (% dec. OVX) (serum cholesterol; Dose 1 mg/kg),Serum Cholesterol (% dec. OVX) (serum cholesterol; Dose 10 mg/kg),Uterine EPO (Vmax) ([2]; Dose 0.01 mg/kg)
O=C(NCCOc1ccc(C(=O)c2c(-c3ccc(O)cc3)sc3cc(O)ccc23)cc1)NC1CCCCC1 [Compound 20],-27.2,-6,-15.4,0.1,-29.9,-27.4,-32.7%,3.0,2.5,2.9,–,–,–,–
CC(=O)NCCOc1ccc(C(=O)c2c(-c3ccc(O)cc3)sc3cc(O)ccc23)cc1 [Compound 26],15.8,–,–,–,-17.5,–,–,1.3,0.7,13.6,–,–,–,–
CC(=O)N(CCOc1ccc(C(=O)c2c(-c3ccc(O)cc3)sc3cc(O)ccc23)cc1)C1CCCCC1 [Compound 19],14.5,–,–,0.1,7,–,–,5.4,3.7,–,–,–,–,–
N#CCOc1ccc(C(=O)c2c(-c3ccc(O)cc3)sc3cc(O)ccc23)cc1 [Compound 14],3.3,23.7,–,0.05,18.8,14.6,–,3.3,2.4,–,–,–,–,–
O=C(c1ccc(OCCN2C(=O)CCC2=O)cc1)c1c(-c2ccc(O)cc2)sc2cc(O)ccc12 [Compound 13],37.6,12.6,30.1,> 1000,22.2,7.2,-4.0%,1.9,1.7,2.5,–,–,–,–
CN(C)C(=O)COc1ccc(C(=O)c2c(-c3ccc(O)cc3)sc3cc(O)ccc23)cc1 [Compound 12],27.8,48.2,71.2,–,-7.7,15.4,60.7* %,3.7,6.7,122.3*,–,–,–,–
O=C(c1ccc(OCC(=O)N2CCCCC2)cc1)c1c(-c2ccc(O)cc2)sc2cc(O)ccc12 [Compound 9],4.2,22,74.3,10,-10.0,6.5,51.7* %,2.8,3.6,32,–,–,–,–
O=C(c1ccc(OCCN2CCCCC2=O)cc1)c1c(-c2ccc(O)cc2)sc2cc(O)ccc12 [Compound 3],38.1,45.8,72.4,600,13.3,17.8,57.6* %,8.0,7.8,8.9,–,–,–,–
CC(C#N)Oc1ccc(C(=O)c2c(-c3ccc(O)cc3)sc3cc(O)ccc23)cc1 (stereo not shown) [Compound 16],–,–,–,0.02,–,–,–,2.3,3.9,23.4,–,–,–,–
O=C(c1ccc(OCCNC(=O)C2CCCCC2)cc1)c1c(-c2ccc(O)cc2)sc2cc(O)ccc12 [Compound 21],–,–,–,–,–,–,–,3.1,2.6,2.4,–,–,–,–
O=C(c1ccc(OCCN2CCCC2=O)cc1)c1c(-c2ccc(O)cc2)sc2cc(O)ccc12 [Compound 6],33.6,52.4,67.5,–,-9,15.4,40.3* %,3.6,1.4,3.7,–,–,–,–
CC(C)(C)C(=O)N1CCC(Oc2ccc(C(=O)c3c(-c4ccc(O)cc4)sc4cc(O)ccc34)cc2)CC1 [Compound 23],-17.4,-5.2,–,4,-4.3,0.8,22.3%,1.6,3.8,6.7,–,–,–,–
O=C(NCCOc1ccc(C(=O)c2c(-c3ccc(O)cc3)sc3cc(O)ccc23)cc1)c1ccccc1 [Compound 18],–,–,–,500,–,–,–,3.2,3.6,3.6,–,–,–,–
CCCCN(C)C(=O)COc1ccc(C(=O)c2c(-c3ccc(O)cc3)sc3cc(O)ccc23)cc1 [Compound 10],-40,19.1,67.1,50,1.5,-6.7,38.0* %,4.3,3.1,17.0,–,–,–,–
COc1ccc(-c2sc3cc(OC)ccc3c2C(=O)c2ccc(OCC(=O)N3CCCCC3)cc2)cc1 [Compound 7],–,–,–,–,-0.5,-16.2,8.4%,5.2,3.7,4.7,–,–,–,–
O=C(c1ccc(OCC(=O)N2CCCC2)cc1)c1c(-c2ccc(O)cc2)sc2cc(O)ccc12 [Compound 8],–,–,–,10,–,–,–,3.6 and 4.4,6.1 and 3.7,–,25.8,69.6* % and 39.4* %,64.5* %,3.5
